Measurements: PMC3317655, “The Isolation and Characterization of β-Glucogallin as a Novel Aldose Reductase Inhibitor from Emblica officinalis” (PLoS ONE, 2012)

Assays:
[1] = target: T1, human aldose reductase (AKR1B1) (Homo sapiens, UniProt P15121); test: Ex vivo culture of transgenic mouse lenses expressing human AKR1B1; sorbitol accumulation at […] sorbinil; type: cell-based; conditions: read-out: % inhibition of sorbitol accumulation at 10 μM
[2] = target: T1, human aldose reductase (AKR1B1); test: Purified recombinant enzyme, NADPH oxidation at […] nm, saturating glucose ([…]) as substrate; type: biochemical

IC50 [2]	SMILES	inhibition at 10 µM [1]
	O=C1NC(=O)[C@@]2(CCOc3ccc(F)cc32)N1 [sorbinil]	97%
17 ± 1 µM	O=C(O[C@@H]1O[C@H](CO)[C@@H](O)[C@H](O)[C@H]1O)c1cc(O)c(O)c(O)c1 [β-glucogallin]	
